From ChEMBL document CHEMBL1201862, “PubChem BioAssay data set” (2004)
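Protocol summary: plate cells (96-well), add compound at 5 concentrations, incubate 48 h, interpolate endpoints linearly. Abbreviation: GI50, concentration required for 50% inhibition of growth.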 The source made the active and inactive calls. Cut-off read from the data, not from the text of the source: active = GI50 up to about 1.1 µM and inactive = higher.

Assays:
Assay in all cases: growth of human tumour cells (NCI), 48 h
SK-MEL-28 = system: SK-MEL-28
OVCAR-4 = system: OVCAR-4
HCC 2998 = system: HCC 2998
MCF7 = system: MCF7
SF-295 = system: SF-295
ACHN = system: ACHN
SNB-75 = system: SNB-75
T47D = system: T47D
SW-620 = system: SW-620
UO-31 = system: UO-31
SK-OV-3 = system: SK-OV-3
NCI/ADR-RES = system: NCI/ADR-RES
SF-539 = system: SF-539
PC-3 = system: PC-3
OVCAR-3 = system: OVCAR-3
SF-268 = system: SF-268
SNB-19 = system: SNB-19
MDA-MB-231 = system: MDA-MB-231
LOX IMVI = system: LOX IMVI
BT-549 = system: BT-549

Compound | GI50 (SK-MEL-28) | GI50 (OVCAR-4) | GI50 (HCC 2998) | GI50 (MCF7) | GI50 (SF-295) | GI50 (ACHN) | GI50 (SNB-75) | GI50 (T47D) | GI50 (SW-620) | GI50 (UO-31) | GI50 (SK-OV-3) | GI50 (NCI/ADR-RES) | GI50 (SF-539) | GI50 (PC-3) | GI50 (OVCAR-3) | GI50 (SF-268) | GI50 (SNB-19) | GI50 (MDA-MB-231) | GI50 (LOX IMVI) | GI50 (BT-549)
Cc1ccc(C2NC(=O)c3ccccc3N2)c(C)c1 (stereo not drawn) | 6.58 µM (inactive) | 2.68 µM (inactive) | 4.52 µM (inactive) | 1.07 µM (active) | 2.15 µM (inactive) | 6.82 µM (inactive) | 1.92 µM (inactive) | 6.01 µM (inactive) | 1.05 µM (active) | 6.81 µM (inactive) | 2.22 µM (inactive) | 1.34 µM (inactive) | 1.61 µM (inactive) | 1.66 µM (inactive) | 1.16 µM (inactive) | 10.2 µM (inactive) | 3.96 µM (inactive) | 7.4 µM (inactive) | 4.76 µM (inactive) | 
COC(=O)C(Cc1c[nH]c2ccccc12)NC(=O)C(Cc1c[nH]c2ccccc12)NC(=O)OCc1ccccc1 (stereo not drawn) | 17.7 µM (inactive) | 16.4 µM (inactive) | 17.8 µM (inactive) |  | 17.9 µM (inactive) | 21.6 µM (inactive) | 21.6 µM (inactive) |  | 17.5 µM (inactive) | 19.3 µM (inactive) | 19.7 µM (inactive) |  | 16.7 µM (inactive) |  | 15.5 µM (inactive) | 19.1 µM (inactive) | 17.5 µM (inactive) |  | 18.3 µM (inactive) | 
CCOC(=O)C1N(S(=O)(=O)c2ccc(C)cc2)CCC12c1ccccc1N(C(C)=O)C2c1ccc(OC)c(OC)c1 (stereo not drawn) | > 100 µM (inactive) | 71.1 µM (inactive) | > 100 µM (inactive) |  | > 100 µM (inactive) | > 100 µM (inactive) | 74 µM (inactive) |  | > 100 µM (inactive) | 42.7 µM (inactive) | > 100 µM (inactive) |  | > 100 µM (inactive) |  | > 100 µM (inactive) | > 100 µM (inactive) | > 100 µM (inactive) |  | > 100 µM (inactive) | 
Cc1nc2c(N)ncnc2o1 | > 100 µM (inactive) | > 100 µM (inactive) | > 100 µM (inactive) |  | > 100 µM (inactive) | > 100 µM (inactive) | > 100 µM (inactive) |  | > 100 µM (inactive) | > 100 µM (inactive) | > 100 µM (inactive) |  | > 100 µM (inactive) |  | > 100 µM (inactive) | > 100 µM (inactive) | > 100 µM (inactive) |  | > 100 µM (inactive) | 
COc1c2c(cc3c1C(=O)Cc1ccc4c(c1CN(C)CC3)OCO4)OCO2 | > 100 µM (inactive) | 75.5 µM (inactive) | > 100 µM (inactive) |  | > 100 µM (inactive) | > 100 µM (inactive) | 26.4 µM (inactive) |  | > 100 µM (inactive) | 12.2 µM (inactive) | > 100 µM (inactive) |  | > 100 µM (inactive) |  | > 100 µM (inactive) | > 100 µM (inactive) | > 100 µM (inactive) |  | > 100 µM (inactive) | 
Fc1cc(-c2cc(-c3ccccc3)n[nH]2)c(Cl)cc1Cl | > 100 µM (inactive) | > 100 µM (inactive) |  |  | > 100 µM (inactive) | 6.35 µM (inactive) | > 100 µM (inactive) | > 100 µM (inactive) | > 100 µM (inactive) | > 100 µM (inactive) | > 100 µM (inactive) | > 100 µM (inactive) | 23 µM (inactive) | > 100 µM (inactive) | > 100 µM (inactive) | > 100 µM (inactive) | > 100 µM (inactive) | 55.5 µM (inactive) | 99.1 µM (inactive) | > 100 µM (inactive)
Cc1nc2c(n1CCC(C)C)C(=O)c1ccccc1C2=O | 17.3 µM (inactive) | 36.6 µM (inactive) | 40.9 µM (inactive) |  | 21.3 µM (inactive) | 29.9 µM (inactive) | 20.1 µM (inactive) |  | 37.9 µM (inactive) | 24.8 µM (inactive) | 38.4 µM (inactive) |  | 12 µM (inactive) |  | 23.5 µM (inactive) | 14.3 µM (inactive) | 39.7 µM (inactive) |  | 14.7 µM (inactive) | 
C=CCN1CCC23c4c5ccc(O)c4OC2C(=NN=C2CCC4(O)C6Cc7ccc(O)c8c7C4(CCN6CC=C)C2O8)CCC3(O)C1C5 (stereo not drawn) | 17.3 µM (inactive) | 22 µM (inactive) | 21.3 µM (inactive) |  | 20.7 µM (inactive) | 20.2 µM (inactive) | 17.1 µM (inactive) |  | 21.4 µM (inactive) | > 100 µM (inactive) | 37.5 µM (inactive) |  | 18.6 µM (inactive) |  | 18.5 µM (inactive) | 53.8 µM (inactive) | 44.3 µM (inactive) |  | 20 µM (inactive) | 
Cc1cc2c(=O)c3ccc(Cl)cc3[nH]c2c(C(=O)O)c1C | > 100 µM (inactive) | > 100 µM (inactive) | > 100 µM (inactive) |  | > 100 µM (inactive) | > 100 µM (inactive) | > 100 µM (inactive) |  | > 100 µM (inactive) | 46.1 µM (inactive) | > 100 µM (inactive) |  | > 100 µM (inactive) |  | > 100 µM (inactive) | > 100 µM (inactive) | > 100 µM (inactive) |  | > 100 µM (inactive) | 
C[C@@H](NC(=O)OC1C=CC2(CC1)C(=O)N(C)c1ccccc12)c1cccc2ccccc12 (stereo partly drawn) | > 25 µM (inactive) | 16.3 µM (inactive) | > 25 µM (inactive) | 7.59 µM (inactive) | 12.7 µM (inactive) | > 25 µM (inactive) | 21.5 µM (inactive) | 7.26 µM (inactive) | > 25 µM (inactive) | > 25 µM (inactive) | > 25 µM (inactive) | 11.7 µM (inactive) |  | > 25 µM (inactive) | > 25 µM (inactive) | 7.36 µM (inactive) | > 25 µM (inactive) | > 25 µM (inactive) | 19.7 µM (inactive) | 
Cc1cc(N)c2cc(NC(=O)CCCCCCCCC(=O)Nc3ccc4nc(C)cc(N)c4c3)ccc2n1 | 42.8 µM (inactive) | > 100 µM (inactive) | 10.3 µM (inactive) |  | 43.2 µM (inactive) | 69.5 µM (inactive) | 32.9 µM (inactive) |  | 27.9 µM (inactive) | > 100 µM (inactive) | > 68.4 µM (inactive) |  | 16.8 µM (inactive) |  | 98.6 µM (inactive) | 29.6 µM (inactive) | > 38.4 µM (inactive) |  | 22.2 µM (inactive) | 
CC(=O)/C=C/c1ccc(C2CC(C)=Nc3c(ccc4c3C(=O)c3ccccc3C4=O)N2)cc1 (stereo not drawn) | > 100 µM (inactive) | > 85.9 µM (inactive) | > 100 µM (inactive) |  | > 100 µM (inactive) | 19 µM (inactive) | 14.8 µM (inactive) |  | 38.5 µM (inactive) | 4.88 µM (inactive) | 15.9 µM (inactive) |  | 63.8 µM (inactive) |  | > 93.8 µM (inactive) | > 71 µM (inactive) | > 100 µM (inactive) |  | 8.83 µM (inactive) | 
COc1cc(O)c2c(c1)C(=O)C=C(Cl)C2=O | > 100 µM (inactive) | > 100 µM (inactive) | 83.6 µM (inactive) |  | > 100 µM (inactive) | 94.6 µM (inactive) | > 100 µM (inactive) |  | > 100 µM (inactive) | 16 µM (inactive) | > 100 µM (inactive) |  | 68.4 µM (inactive) |  | > 100 µM (inactive) | > 100 µM (inactive) | > 100 µM (inactive) |  | > 100 µM (inactive) | 
COc1ccc(C(OC(C)=O)C2C(=C(C#N)C#N)c3ccccc3C2=C(C#N)C#N)cc1 (stereo not drawn) | 67.3 µM (inactive) | 32.4 µM (inactive) | 22.6 µM (inactive) | 48.3 µM (inactive) | 19.9 µM (inactive) | 36.4 µM (inactive) | 36.1 µM (inactive) | 70 µM (inactive) | 36.8 µM (inactive) | 28 µM (inactive) | 18.6 µM (inactive) | 50.1 µM (inactive) | 20.6 µM (inactive) | 21.8 µM (inactive) | 21.6 µM (inactive) | 35.6 µM (inactive) |  | 39.5 µM (inactive) | 33.9 µM (inactive) | 
O=C(Sc1c(-c2ccccc2)c(=O)n(-c2ccccc2)c(=S)n1-c1ccccc1)c1ccc(Cl)cc1 | > 100 µM (inactive) | > 100 µM (inactive) | > 100 µM (inactive) | 74.3 µM (inactive) | > 100 µM (inactive) | > 100 µM (inactive) | > 100 µM (inactive) | 71 µM (inactive) | > 100 µM (inactive) |  | > 100 µM (inactive) | > 100 µM (inactive) | > 100 µM (inactive) |  | > 100 µM (inactive) | > 100 µM (inactive) | > 100 µM (inactive) | 55.8 µM (inactive) | > 100 µM (inactive) | 
CCC(C)CCOC(=O)c1ccc(/N=C\c2ccc(/C=N/c3ccc(C(=O)OCCC(C)CC)cc3)cc2)cc1 (stereo not drawn) | > 100 µM (inactive) | > 100 µM (inactive) | > 100 µM (inactive) |  | > 100 µM (inactive) | > 100 µM (inactive) | > 100 µM (inactive) |  | > 100 µM (inactive) | 41.1 µM (inactive) | > 100 µM (inactive) |  | > 100 µM (inactive) |  | > 100 µM (inactive) | > 100 µM (inactive) | > 100 µM (inactive) |  | > 100 µM (inactive) | 
C=CC1=CC(C)C[C@]1(O)C(=O)OC (stereo partly drawn) | < 0.01 µM (active) | < 0.01 µM (active) | < 0.01 µM (active) |  | < 0.01 µM (active) | < 0.01 µM (active) | < 0.01 µM (active) |  | 38.5 µM (inactive) | < 0.01 µM (active) | > 100 µM (inactive) |  | > 100 µM (inactive) |  | < 0.01 µM (active) | < 0.01 µM (active) | < 0.01 µM (active) |  | < 0.01 µM (active) | 
